Source: patent publication US20240246942A1, “KINASE INHIBITORS FOR THE TREATMENT OF NEURODEGENERATIVE DISEASES” (priority 2020, published 2024)

How the values were obtained:
Experiment in all cases: biochemical
[1] = target: T1, panel of 374 wild-type kinases (Homo sapiens, UniProt O75716); details: read-out: % Enzyme Activity (relative to DMSO controls), kinase STK16
T1 construct: purchased Reaction Biology Corporation

[2] = target: T2, panel of 374 wild-type kinases (Homo sapiens, UniProt Q9UBS0); details: read-out: % Enzyme Activity (relative to DMSO controls), kinase p70S6Kb/RPS6KB2
T2 construct: purchased Reaction Biology Corporation

[3] = target: T3, panel of 374 wild-type kinases (Homo sapiens, UniProt Q9H2K8); details: read-out: % Enzyme Activity (relative to DMSO controls), kinase TAOK3/JIK
T3 construct: purchased Reaction Biology Corporation
T3 sequence (Q9H2K8 1-898): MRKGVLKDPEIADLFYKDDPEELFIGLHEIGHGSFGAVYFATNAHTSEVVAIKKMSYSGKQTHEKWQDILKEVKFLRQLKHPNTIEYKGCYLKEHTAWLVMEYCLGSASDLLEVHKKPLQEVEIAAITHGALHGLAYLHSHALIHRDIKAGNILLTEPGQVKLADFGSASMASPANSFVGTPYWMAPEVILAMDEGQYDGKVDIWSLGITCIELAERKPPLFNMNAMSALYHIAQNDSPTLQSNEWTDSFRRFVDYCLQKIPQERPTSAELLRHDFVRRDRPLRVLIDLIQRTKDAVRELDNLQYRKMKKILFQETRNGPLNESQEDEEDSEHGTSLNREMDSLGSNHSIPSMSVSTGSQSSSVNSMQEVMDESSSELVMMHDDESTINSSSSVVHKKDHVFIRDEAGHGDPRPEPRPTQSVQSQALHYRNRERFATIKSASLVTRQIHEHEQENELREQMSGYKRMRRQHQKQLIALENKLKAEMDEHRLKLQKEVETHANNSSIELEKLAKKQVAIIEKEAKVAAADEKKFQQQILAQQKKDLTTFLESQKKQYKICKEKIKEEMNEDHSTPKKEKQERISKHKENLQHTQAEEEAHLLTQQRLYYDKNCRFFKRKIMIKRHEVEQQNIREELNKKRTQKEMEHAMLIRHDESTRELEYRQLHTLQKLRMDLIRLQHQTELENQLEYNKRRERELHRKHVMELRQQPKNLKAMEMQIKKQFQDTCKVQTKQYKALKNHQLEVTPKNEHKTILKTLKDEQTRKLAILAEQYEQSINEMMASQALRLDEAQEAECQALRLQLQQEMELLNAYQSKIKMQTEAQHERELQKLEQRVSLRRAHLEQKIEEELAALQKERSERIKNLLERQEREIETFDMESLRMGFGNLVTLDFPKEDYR

[4] = target: T4, panel of 374 wild-type kinases (Homo sapiens, UniProt Q9Y4K4); details: read-out: % Enzyme Activity (relative to DMSO controls), KHS/MAP4K5
T4 construct: purchased Reaction Biology Corporation

[5] = target: T5, panel of 374 wild-type kinases (Homo sapiens, UniProt P08581); details: read-out: % Enzyme Activity (relative to DMSO controls), c-MET
T5 construct: purchased Reaction Biology Corporation

[6] = target: T6, panel of 374 wild-type kinases (Homo sapiens, UniProt P51812); details: read-out: % Enzyme Activity (relative to DMSO controls), kinase RSK2
T6 construct: purchased Reaction Biology Corporation

[7] = target: T7, panel of 374 wild-type kinases (Homo sapiens, UniProt Q15303); details: read-out: % Enzyme Activity (relative to DMSO controls), ERBB4/HER4
T7 construct: purchased Reaction Biology Corporation

[8] = target: T8, panel of 374 wild-type kinases (Homo sapiens, UniProt P29376); details: kinase TYK1/LTK, read-out: % Enzyme Activity (relative to DMSO controls)
T8 construct: purchased Reaction Biology Corporation

[9] = target: T9, panel of 374 wild-type kinases (Homo sapiens, UniProt Q96GD4); details: read-out: % Enzyme Activity (relative to DMSO controls), Aurora B
T9 construct: purchased Reaction Biology Corporation

[10] = target: T10, panel of 374 wild-type kinases (Homo sapiens, UniProt Q9HBY8); details: read-out: % Enzyme Activity (relative to DMSO controls), kinase SGK2
T10 construct: purchased Reaction Biology Corporation

[11] = target: T11, panel of 374 wild-type kinases (Homo sapiens, UniProt P35626); details: read-out: % Enzyme Activity (relative to DMSO controls), GRK3
T11 construct: purchased Reaction Biology Corporation
T11 sequence (P35626 1-688): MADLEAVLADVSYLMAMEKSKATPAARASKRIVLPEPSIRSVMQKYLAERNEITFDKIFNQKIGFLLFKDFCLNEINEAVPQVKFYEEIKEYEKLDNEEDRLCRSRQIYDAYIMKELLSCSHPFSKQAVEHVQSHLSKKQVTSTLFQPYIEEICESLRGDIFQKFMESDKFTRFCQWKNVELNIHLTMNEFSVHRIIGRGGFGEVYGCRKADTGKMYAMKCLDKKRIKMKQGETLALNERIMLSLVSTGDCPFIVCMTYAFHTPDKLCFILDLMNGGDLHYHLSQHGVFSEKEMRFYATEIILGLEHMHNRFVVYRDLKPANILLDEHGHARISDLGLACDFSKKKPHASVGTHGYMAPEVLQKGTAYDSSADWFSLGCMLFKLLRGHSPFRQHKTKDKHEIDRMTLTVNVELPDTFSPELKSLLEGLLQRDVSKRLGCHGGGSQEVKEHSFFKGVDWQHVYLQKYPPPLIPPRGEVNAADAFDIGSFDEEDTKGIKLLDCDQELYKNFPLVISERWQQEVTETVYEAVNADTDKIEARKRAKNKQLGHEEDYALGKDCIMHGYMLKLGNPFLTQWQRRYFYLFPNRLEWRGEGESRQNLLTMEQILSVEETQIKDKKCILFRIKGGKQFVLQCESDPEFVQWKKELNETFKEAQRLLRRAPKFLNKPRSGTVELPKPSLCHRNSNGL

[12] = target: T12, panel of 374 wild-type kinases (Homo sapiens, UniProt P00533); details: read-out: % Enzyme Activity (relative to DMSO controls), EGFR
T12 construct: purchased Reaction Biology Corporation
T12 sequence (P00533 25-1210): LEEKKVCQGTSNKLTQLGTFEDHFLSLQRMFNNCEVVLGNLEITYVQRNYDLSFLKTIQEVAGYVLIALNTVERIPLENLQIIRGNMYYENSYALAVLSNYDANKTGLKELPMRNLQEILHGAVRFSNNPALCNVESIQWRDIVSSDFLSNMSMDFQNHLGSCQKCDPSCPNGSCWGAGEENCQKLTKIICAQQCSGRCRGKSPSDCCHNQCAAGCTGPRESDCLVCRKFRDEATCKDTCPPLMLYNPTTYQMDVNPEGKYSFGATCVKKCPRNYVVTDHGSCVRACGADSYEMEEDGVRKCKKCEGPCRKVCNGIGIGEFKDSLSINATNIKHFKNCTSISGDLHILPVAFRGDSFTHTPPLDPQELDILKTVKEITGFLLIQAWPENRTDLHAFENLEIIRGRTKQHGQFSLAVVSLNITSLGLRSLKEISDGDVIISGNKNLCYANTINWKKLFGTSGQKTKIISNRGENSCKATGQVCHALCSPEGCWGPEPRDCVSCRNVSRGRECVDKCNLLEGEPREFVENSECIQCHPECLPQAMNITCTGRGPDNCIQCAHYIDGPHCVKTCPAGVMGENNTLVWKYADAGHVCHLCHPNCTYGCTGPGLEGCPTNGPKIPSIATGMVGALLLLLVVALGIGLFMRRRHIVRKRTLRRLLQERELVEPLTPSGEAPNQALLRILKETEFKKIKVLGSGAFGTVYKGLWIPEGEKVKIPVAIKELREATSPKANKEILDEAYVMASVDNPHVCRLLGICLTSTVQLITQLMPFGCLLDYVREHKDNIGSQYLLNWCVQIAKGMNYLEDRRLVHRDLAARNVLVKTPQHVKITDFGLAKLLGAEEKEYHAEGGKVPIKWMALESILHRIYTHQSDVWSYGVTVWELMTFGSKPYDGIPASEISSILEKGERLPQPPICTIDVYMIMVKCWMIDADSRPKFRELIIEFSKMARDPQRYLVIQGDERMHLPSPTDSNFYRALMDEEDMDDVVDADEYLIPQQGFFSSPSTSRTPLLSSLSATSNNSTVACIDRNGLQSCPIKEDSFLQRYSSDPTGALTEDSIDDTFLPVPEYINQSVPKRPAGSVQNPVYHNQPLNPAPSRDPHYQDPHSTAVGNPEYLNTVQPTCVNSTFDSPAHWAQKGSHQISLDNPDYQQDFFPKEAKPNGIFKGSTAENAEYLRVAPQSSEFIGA

T7 sequence (Q15303 26-1308): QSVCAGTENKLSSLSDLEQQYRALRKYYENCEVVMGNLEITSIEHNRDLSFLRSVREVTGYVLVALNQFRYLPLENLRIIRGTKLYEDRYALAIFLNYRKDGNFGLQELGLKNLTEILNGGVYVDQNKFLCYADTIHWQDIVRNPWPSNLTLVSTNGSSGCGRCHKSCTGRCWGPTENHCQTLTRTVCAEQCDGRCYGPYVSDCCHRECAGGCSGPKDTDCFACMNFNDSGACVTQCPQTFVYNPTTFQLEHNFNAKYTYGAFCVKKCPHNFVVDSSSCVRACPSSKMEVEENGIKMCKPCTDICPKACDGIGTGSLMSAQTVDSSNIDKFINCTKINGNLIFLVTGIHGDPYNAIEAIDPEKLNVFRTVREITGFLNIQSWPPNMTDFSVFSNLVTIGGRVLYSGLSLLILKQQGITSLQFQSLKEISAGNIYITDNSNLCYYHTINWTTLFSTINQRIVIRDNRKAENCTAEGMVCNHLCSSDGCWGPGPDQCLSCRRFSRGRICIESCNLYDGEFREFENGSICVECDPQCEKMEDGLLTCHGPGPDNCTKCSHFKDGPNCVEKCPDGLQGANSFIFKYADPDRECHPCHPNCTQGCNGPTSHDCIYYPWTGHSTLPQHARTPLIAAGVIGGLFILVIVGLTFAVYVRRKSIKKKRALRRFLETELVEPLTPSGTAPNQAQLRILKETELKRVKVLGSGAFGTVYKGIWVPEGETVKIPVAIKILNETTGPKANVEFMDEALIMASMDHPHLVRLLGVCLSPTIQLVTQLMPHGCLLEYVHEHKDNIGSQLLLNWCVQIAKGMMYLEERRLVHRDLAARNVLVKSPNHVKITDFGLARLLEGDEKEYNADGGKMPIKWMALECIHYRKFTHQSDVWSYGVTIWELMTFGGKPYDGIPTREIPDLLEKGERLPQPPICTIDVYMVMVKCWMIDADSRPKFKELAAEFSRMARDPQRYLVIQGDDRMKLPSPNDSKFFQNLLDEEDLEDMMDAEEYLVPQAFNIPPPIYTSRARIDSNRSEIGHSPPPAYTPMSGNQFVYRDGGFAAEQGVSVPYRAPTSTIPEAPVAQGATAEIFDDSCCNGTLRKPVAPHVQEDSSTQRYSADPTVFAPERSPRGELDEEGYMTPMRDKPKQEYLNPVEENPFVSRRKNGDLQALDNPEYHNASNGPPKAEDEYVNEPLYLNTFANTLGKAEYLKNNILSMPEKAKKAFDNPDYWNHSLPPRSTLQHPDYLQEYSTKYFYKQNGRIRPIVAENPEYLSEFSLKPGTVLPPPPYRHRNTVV
T4 sequence (Q9Y4K4 whole entry): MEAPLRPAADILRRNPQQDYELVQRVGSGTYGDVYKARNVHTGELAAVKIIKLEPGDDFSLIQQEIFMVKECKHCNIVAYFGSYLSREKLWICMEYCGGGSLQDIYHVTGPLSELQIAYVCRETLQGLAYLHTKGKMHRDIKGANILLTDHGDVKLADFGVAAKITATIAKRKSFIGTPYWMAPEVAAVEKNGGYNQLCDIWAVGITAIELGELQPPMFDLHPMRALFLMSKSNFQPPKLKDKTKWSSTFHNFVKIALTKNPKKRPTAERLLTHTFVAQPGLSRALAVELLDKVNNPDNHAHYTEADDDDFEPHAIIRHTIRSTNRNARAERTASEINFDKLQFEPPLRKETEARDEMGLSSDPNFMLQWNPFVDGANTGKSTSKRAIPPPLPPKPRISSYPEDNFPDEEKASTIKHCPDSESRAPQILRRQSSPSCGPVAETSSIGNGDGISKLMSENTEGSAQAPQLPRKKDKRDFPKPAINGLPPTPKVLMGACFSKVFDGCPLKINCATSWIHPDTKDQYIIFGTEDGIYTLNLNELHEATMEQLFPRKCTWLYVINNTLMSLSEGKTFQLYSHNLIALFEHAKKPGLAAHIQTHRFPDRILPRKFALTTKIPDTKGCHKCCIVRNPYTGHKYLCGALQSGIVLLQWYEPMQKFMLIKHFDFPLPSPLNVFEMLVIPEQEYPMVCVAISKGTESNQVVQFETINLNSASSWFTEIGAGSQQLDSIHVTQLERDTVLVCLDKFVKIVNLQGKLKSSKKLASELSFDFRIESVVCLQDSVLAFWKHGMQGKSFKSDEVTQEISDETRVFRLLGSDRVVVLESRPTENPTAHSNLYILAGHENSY
T1 sequence (O75716 whole entry): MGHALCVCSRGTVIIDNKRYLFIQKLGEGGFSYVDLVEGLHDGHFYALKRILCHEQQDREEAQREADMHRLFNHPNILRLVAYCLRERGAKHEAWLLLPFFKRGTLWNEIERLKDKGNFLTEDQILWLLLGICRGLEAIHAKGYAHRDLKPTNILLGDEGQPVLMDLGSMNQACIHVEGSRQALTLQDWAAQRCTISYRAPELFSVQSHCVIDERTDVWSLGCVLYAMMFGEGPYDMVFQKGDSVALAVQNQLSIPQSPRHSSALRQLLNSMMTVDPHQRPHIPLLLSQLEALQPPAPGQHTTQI
T5 sequence (P08581 25-1390): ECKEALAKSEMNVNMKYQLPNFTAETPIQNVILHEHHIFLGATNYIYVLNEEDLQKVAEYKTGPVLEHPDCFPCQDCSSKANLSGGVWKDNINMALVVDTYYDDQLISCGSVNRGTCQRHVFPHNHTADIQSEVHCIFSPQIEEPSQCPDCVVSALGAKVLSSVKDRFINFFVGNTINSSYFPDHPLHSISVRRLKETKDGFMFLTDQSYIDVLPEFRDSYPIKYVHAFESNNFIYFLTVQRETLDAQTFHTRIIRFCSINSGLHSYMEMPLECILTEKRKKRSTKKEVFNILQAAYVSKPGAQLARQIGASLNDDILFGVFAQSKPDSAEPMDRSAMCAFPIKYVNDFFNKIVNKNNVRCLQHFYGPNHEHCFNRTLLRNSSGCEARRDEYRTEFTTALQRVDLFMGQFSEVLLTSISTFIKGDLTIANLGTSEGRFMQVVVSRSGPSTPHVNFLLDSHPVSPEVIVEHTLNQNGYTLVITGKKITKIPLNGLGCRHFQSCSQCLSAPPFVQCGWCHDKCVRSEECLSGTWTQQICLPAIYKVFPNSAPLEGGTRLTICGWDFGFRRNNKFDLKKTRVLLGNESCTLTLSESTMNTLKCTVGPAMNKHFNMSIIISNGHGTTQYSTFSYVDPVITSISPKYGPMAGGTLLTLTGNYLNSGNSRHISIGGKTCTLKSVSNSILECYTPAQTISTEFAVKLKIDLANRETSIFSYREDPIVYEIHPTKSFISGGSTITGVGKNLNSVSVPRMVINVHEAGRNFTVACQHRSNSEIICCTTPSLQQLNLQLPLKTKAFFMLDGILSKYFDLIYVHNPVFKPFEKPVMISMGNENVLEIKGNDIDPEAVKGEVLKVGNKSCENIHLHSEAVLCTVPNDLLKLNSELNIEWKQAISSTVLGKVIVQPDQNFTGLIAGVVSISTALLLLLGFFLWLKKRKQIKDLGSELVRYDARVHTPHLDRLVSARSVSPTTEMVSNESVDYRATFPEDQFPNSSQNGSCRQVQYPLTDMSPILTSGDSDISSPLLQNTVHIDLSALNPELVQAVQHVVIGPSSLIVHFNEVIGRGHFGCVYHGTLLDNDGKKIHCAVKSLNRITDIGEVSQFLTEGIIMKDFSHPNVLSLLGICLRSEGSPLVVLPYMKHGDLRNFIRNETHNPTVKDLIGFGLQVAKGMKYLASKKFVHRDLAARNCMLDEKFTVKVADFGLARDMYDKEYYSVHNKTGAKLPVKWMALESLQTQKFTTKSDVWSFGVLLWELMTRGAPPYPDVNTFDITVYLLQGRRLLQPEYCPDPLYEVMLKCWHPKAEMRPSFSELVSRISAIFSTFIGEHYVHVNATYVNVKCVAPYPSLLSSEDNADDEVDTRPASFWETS

| Compound | remaining activity at 5 µM [1] [%] | remaining activity at 5 µM [2] [%] | remaining activity at 5 µM [3] [%] | remaining activity at 5 µM [4] [%] | remaining activity at 5 µM [5] [%] | remaining activity at 5 µM [6] [%] | remaining activity at 5 µM [7] [%] | remaining activity at 5 µM [8] [%] | remaining activity at 5 µM [9] [%] | remaining activity at 5 µM [10] [%] | remaining activity at 5 µM [11] [%] | remaining activity at 5 µM [12] [%] | other results |
| --- | --- | --- | --- | --- | --- | --- | --- | --- | --- | --- | --- | --- | --- |
| O=C(Nc1cnn(-c2csc(C(=O)NC3COC3)c2)c1)Nc1ccccc1Cl [Compound 17, 4-(4-(3-(2-chlorophenyl)ureido)-1H-pyrazol-1-yl)-N-(oxetan-3-yl)thiophene-2-carboxamide] | 98.6 | 94.2 | 103 | 99.1 | 102 | 101 | 105 | 99.2 | 93 | 101 | 102 | 99.7 |  |
| Cc1sc(C(=O)NC2COC2)cc1-n1cc(NC(=O)Nc2c(F)cccc2Cl)cn1 [Compound 27, 4-(4-(3-(2-chloro-6-fluorophenyl)ureido)-1H-pyrazol-1-yl)-5-methyl-N-(oxetan-3-yl)thiophene-2-carboxamide] |  |  |  |  |  |  |  |  |  |  |  |  | remaining activity at 10 µM ([1]; 10 uM): 94.4%; remaining activity at 10 µM ([2]; 10 uM): 98.9%; remaining activity at 10 µM ([3]; 10 uM): 98%; remaining activity at 10 µM ([4]; 10 uM): 98.4%; remaining activity at 10 µM ([5]; 10 uM): 77%; remaining activity at 10 µM ([6]; 10 uM): 73%; remaining activity at 10 µM ([7]; 10 uM): 95%; remaining activity at 10 µM ([8]; 10 uM): 114%; remaining activity at 10 µM ([9]; 10 uM): 96.4%; remaining activity at 10 µM ([10]; 10 uM): 97.2%; remaining activity at 10 µM ([11]; 10 uM): 107%; remaining activity at 10 µM ([12]; 10 uM): 98.5% |
| O=C(Nc1cnn(-c2csc(C(=O)NC3COC3)c2)c1)Nc1c(F)cccc1Cl [Compound 25, 4-(4-(3-(2-chloro-6-fluorophenyl)ureido)-1H-pyrazol-1-yl)-N-(oxetan-3-yl)thiophene-2-carboxamide] | 107 | 101 | 90.2 | 103 | 86.1 | 79.9 | 102 | 92.2 | 69.8 | 88.6 | 101 | 89.4 |  |
